The values that follow come from US8076294B2, “Collagen-related peptides and uses thereof” (Advanced Technologies and Regenerative Medicine, LLC., priority 2007, dated 2011).

One experiment addresses T1, integrin GPIIb/IIIa (Homo sapiens, UniProt P05106+P08514).
T1 construct: Washed platelets were incubated with various elarofiban doses; host or cells: washed human platelets from PRP of healthy volunteers
The experiment can be described thus: Inhibition by elarofiban of platelet aggregation induced by collagen or CRP trimer SEQ ID 25. It counts as cell-based.

For another experiment, the system named is human platelets. The experiment can be described thus: Human platelet aggregation assay (washed platelets, optical density 650 nm). It counts as cell-based. The following applies: for EC50 ± SEM, platelet aggregation: Table 3. How it is done: Human platelet-rich plasma (PRP) concentrate from healthy volunteers was purchased from Biological Specialties, Inc. (Colmar, Pa.). […] The PRP was centrifuged at 730 g for 15 min. The resulting platelet pellet was washed twice in CGS buffer (13 mM sodium citrate, 30 mM glucose, 120 mM NaCl, pH 6.5) containing 1 U/mL apyrase (grade V, Sigma-Aldrich) and resuspended in Tyrode's buffer (140 mM NaCl, 2.7 mM KCl, 12 mM NaHCO3, 0.76 mM Na2HPO4, 5.5 mM dextrose, 5.0 mM Hepes, 0.2% BSA, pH 7.4). The “washed” platelets were diluted to 3×10^8 platelets/mL and kept >45 min at 37° C. before use.
For the assay, 105 μL of washed platelets, 2 mM CaCl2 and […] of fibrinogen were added to a 96-well microtiter plate. Platelet aggregation was initiated by the addition of serial concentrations of native collagen fibrils (equine type I; 92% identity with human collagen sequence; Chrono-log Corp., Havertown, Pa.) or test peptides. Buffer was added to one set of control wells. The assay plate was stirred constantly and intermittently placed in a microplate reader (Softmax, Molecular Devices, Menlo Park, Calif.) to read optical density (650 nm) at 0 and 5 min after the addition of the compound solutions. Aggregation was calculated as the decrease in optical density between the time-0 and 5-min measurements and expressed as percent of aggregation.
Peptides were dissolved in PBS (pH 7) or water (final pH 5) to a concentration of 2 mg/mL. Some samples were heated in a water bath (70° C.) for 10 min, filtered through a 0.45-μm filter and incubated for 24 h or 7 days at 4° C.

Entries after “also recorded” stand apart in the source; their conditions may differ.

T1 sequence (P08514 32-887 limits assumed): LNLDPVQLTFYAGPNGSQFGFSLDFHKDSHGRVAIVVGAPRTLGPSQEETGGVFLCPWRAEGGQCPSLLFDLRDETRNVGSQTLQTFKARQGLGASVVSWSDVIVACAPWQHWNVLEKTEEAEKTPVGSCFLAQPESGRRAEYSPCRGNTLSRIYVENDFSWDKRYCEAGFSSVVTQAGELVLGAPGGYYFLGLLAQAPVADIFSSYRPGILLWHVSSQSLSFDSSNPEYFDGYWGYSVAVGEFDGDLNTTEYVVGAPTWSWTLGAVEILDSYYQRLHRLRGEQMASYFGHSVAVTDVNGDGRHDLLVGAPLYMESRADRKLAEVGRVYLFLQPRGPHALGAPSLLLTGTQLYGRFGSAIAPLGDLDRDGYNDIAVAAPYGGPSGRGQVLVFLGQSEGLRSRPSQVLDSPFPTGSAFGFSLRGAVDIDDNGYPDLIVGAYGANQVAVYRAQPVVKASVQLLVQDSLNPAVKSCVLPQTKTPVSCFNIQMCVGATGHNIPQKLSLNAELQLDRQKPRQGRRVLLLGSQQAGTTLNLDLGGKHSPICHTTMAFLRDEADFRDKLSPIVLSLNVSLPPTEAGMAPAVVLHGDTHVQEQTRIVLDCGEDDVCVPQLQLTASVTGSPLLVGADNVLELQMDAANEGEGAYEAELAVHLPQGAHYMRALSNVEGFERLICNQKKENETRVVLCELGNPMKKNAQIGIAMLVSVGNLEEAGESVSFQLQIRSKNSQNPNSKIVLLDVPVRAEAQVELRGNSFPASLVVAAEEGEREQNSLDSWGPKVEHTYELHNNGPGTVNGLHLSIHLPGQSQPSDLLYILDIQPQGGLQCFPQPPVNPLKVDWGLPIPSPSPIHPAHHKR
T1 sequence (P08514 891-1039 partner limits assumed): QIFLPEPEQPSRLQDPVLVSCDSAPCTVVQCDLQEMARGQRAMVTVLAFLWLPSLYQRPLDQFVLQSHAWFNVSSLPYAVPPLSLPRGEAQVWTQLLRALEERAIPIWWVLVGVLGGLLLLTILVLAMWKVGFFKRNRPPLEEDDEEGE
T1 sequence (P05106 27-788): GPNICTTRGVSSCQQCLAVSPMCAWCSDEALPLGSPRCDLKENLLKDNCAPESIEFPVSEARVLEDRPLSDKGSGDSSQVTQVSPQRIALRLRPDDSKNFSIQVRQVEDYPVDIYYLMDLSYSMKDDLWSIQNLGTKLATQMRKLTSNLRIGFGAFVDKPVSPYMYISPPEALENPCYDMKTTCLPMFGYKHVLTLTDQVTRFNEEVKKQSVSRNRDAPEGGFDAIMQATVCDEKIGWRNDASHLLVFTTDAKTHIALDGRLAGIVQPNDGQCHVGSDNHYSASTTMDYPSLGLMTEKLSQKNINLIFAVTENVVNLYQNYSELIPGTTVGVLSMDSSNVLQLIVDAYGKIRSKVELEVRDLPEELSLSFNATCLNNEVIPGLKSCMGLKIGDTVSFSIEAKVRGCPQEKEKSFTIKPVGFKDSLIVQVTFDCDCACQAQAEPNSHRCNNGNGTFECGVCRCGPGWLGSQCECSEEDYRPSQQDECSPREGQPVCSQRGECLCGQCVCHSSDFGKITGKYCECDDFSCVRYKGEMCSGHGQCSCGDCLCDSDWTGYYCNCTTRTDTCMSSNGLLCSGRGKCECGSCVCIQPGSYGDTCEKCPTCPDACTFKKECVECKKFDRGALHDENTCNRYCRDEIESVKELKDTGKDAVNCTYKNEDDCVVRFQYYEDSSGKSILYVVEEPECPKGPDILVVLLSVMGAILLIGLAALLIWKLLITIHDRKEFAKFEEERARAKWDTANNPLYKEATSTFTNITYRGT

For the compound `O=C(O)C[C@H](NC(=O)[C@@H]1CCCN(C(=O)CCC2CCNCC2)C1)c1cccnc1` [elarofiban], the “Inhibition of platelet aggregation induced by the CRP trimer having SEQ ID 25” value at integrin GPIIb/IIIa (washed platelets incubated with 10, 100 and 1000 nM for 5 min before SEQ ID 25) is given as “dose-dependent inhibition”. Also, the “Inhibition of platelet aggregation induced by collagen” value on integrin GPIIb/IIIa (washed platelets incubated with 10, 100 and 1000 nM for 5 min before collagen) was “dose-dependent inhibition”.

Take (Pro-Hyp-Gly)10 [SEQ ID 34]: the “Stimulation of platelet aggregation (in words)” value in the experiment with human platelets (Example 6, FIG. 1) was “not effective”. Further, in the experiment with human platelets (peptide in PBS, H + F, pH 7, incubation 24 h), the “EC50 ± SEM, platelet aggregation” value is “failed to aggregate platelets; also recorded: Not Active”.

In the case of Collagen, the “EC50 values (±SEM), platelet aggregation” value in the experiment with human platelets (Example 6, FIG. 1, Table 4) came to 0.56 ± 0.09 µg/mL. The “EC50 ± SEM, platelet aggregation” value in the experiment with human platelets (native collagen fibrils (equine type I), no preparation conditions given) was 0.25 µg/mL.
